Results on four compounds are retold here after US12280068B1 (ZYLORION HEALTH INC., priority 2023, dated 2025).

One assay has as its target T1, human 5HT2A (Homo sapiens, UniProt P28223).
T1 construct: expressed in transfected cells
In words: AequoScreen Ca2+ release assay in CHO-K1 cells. It counts as cell-based. The note with it: for 5-HT2A-dependent Ca^2+ release Efficacy (% ± S.E.M.): CHO-K1 cells expressing h5HT2A.

The next assay addresses T2, h5HT2A (Homo sapiens, UniProt P28223).
T2 construct: expressed in transfected cells; host or cells: CHO-K1 cells, transient transfection with Lipofectamine 3000
The assay can be described thus: NanoBit βarrestin2 recruitment assay in CHO-K1 cells. Format: cell-based. For orientation: Activated receptors often draw arrestin, which recruitment assays turn into a signal.

The mark [1] stands for this setting: CHO-K1 cells, AUC of first 30 min.

T2 sequence (P28223 whole entry): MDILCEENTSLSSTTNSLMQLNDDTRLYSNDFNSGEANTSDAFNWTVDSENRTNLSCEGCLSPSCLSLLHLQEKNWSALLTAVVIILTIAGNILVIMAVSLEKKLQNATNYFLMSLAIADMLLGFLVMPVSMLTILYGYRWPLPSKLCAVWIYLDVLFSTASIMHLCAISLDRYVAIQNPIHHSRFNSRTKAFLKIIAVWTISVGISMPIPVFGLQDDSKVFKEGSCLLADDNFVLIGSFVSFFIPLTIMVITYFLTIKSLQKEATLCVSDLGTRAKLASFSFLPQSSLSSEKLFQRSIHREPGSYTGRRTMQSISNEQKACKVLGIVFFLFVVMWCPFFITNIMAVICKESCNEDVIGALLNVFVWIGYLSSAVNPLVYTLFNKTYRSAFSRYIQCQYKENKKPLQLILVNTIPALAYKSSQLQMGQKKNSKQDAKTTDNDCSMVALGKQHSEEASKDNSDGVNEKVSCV
T2 sequence (P32121 whole entry, further chain): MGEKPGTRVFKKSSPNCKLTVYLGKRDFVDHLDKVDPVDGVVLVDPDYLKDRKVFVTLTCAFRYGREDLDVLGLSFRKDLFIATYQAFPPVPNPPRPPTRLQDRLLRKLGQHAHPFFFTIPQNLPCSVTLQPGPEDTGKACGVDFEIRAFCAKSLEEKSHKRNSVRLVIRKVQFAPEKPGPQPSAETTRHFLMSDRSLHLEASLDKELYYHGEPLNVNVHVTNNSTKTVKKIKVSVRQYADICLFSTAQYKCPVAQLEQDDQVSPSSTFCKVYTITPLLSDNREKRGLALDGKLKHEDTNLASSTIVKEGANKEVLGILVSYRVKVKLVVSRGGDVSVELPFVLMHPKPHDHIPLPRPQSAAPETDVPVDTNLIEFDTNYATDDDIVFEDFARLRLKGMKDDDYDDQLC
T1 sequence (P28223 whole entry): as the sequence (P28223 whole entry) above
From the text for h5HT2A: Cell Culture—CHO-K1 cells were transfected with either NanoBit™ smBIT h5HT2A plasmids and lgBiT βarrestin2 plasmid. When h5HT2A and βarrestin2 come into contact with one another the smBiT and lgBiT peptides complement each other to produce a complete NanoBit™ luciferase enzyme. When complete, the enzyme is able to catalyze the breakdown of the molecule coelenterazine to produce light. Emitted light levels are proportional to interactions between receptor and βarrestin2. Cells were maintained at 37° C., 5% CO2 in F-12 DMEM containing 1 mM L-glutamine, 10% FBS, and 1% Pen/Strep. For transfections, CHO-K1 cells were seeded in 6-well plates (500,000 cells per well) and incubated overnight in standard media as described above. Following overnight incubation, the cells were transfected with 1 μg of both the h5HT2A and the βarr2 NanoBiT plasmids. Transfections were carried out using Lipofectamine 3000 (Fisher Scientific, Ottawa, ON), according to the manufacturer's protocol in Opti-MEM media containing 1% FBS.
βarrestin2 assay—After seeding at 20,000 cells/well in flat bottom, white bottom, white wall, poly-D-lysine coated 96-well plates, transfected CHO-K1 cells were rinsed twice with Hank's buffered salt solution (HBSS), and 100 μL of HBSS was added to each of the wells. To this, 25 μL of Nano-Glo Live Cell Substrate was added (diluted 1/20 in the Nano-Glo LCS Dilution buffer, according to the manufacturer's protocol), and the plate was transferred to a Cytation5 plate reader. […] AUC data were then used for subsequent analyses.
Method for human 5HT2A: Cell Culture—AequoScreen™ Chinese hamster ovary (CHO)-K1 cells stably expressing human 5HT2A or 5HT2B (h5HT2A, h5HT2B) were maintained at 37° C., 5% CO2 in F-12 DMEM containing 1 mM L-glutamine, 10% FBS, and 1% Pen/Strep.
Ca^2+ Assay—Release of Ca^2+ into the cellular cytosol upon GPCR-dependent activation of Gaq/11 was determined using the AequoScreen™ assay in CHO-K1 cells stably expressing h5HT2A or h5HT2B. […] Upon binding Ca^2+, apoaequorin becomes activated to aequorin and converts coelenterazine to coelenteramide, CO2, and light. Light production is therefore directly proportional to the release of Ca^2+ from intracellular stores upon GPCR activation. Cells were seeded into flat bottom, white bottom, white wall, poly-D-lysine coated 96-well plates (20,000 cells/well) and incubated overnight in Opti-MEM containing 1% FBS at 37° C. and 5% CO2. Following this, Opti-MEM media was removed and replaced with fresh Opti-MEM containing 5 μM coelenterazine h (Promega, Madison, WI) and 1% FBS (final volume 50 μL) and cells were incubated at 25° C. for 4 h. After these 4 h, cells were treated with 50 μL 2× concentrated ligand solutions to achieve the concentrations indicated and centrifuged at 1,000×g for 1 min at room temperature. Chemiluminescence was then immediately measured on a Cytation5 plate reader (top read, gain 200, integration time 10,000 msec).

Consider `CCN(CC)C(=O)[C@@H]1C=C2c3cccc4[nH]cc(c34)C[C@H]2N(C)C1` [LSD, lysergic acid diethylamide], for which the “5-HT2A-dependent Ca^2+ release Efficacy (% ± S.E.M.)” value on human 5HT2A is given as 82 ± 4.7%. Besides, the “5-HT2A-dependent βarrestin2 recruitment Efficacy (% ± S.E.M.)” value on h5HT2A (setting [1]) is 83 ± 4.7%.

For the compound `CN(C)CCc1c[nH]c2cccc(O)c12` [Psilocin], on human 5HT2A, the “5-HT2A Ca^2+ release activity (in words)” value is “high potency” and the “5-HT2A-dependent Ca^2+ release Efficacy (% ± S.E.M.)” value was 69 ± 12%. The “5-HT2A βarrestin2 recruitment activity (in words)” value on h5HT2A is given as “intermediate potency”. On h5HT2A (setting [1]), the “5-HT2A-dependent βarrestin2 recruitment Efficacy (% ± S.E.M.)” value is given as 45 ± 15%.

As to `CN(C)CCc1c[nH]c2cccc(OP(=O)(O)O)c12` [Psilocybin], the “5-HT2A-dependent Ca^2+ release Efficacy (% ± S.E.M.)” value on human 5HT2A is 69 ± 15%. In addition, at h5HT2A (setting [1]), the “5-HT2A-dependent βarrestin2 recruitment Efficacy (% ± S.E.M.)” value turned out to be 3.7 ± 22% and the “5-HT2A-dependent βarrestin2 recruitment Potency (nM)” value is “not converged”.

For the compound `NCCc1c[nH]c2ccc(O)cc12` [Serotonin (5HT), 5-hydroxytryptamine], on h5HT2A (setting [1]), the “5-HT2A-dependent βarrestin2 recruitment Efficacy (% ± S.E.M.)” value is recorded as 37 ± 16%.
